Measured values: US20260273074A1, “FERRITIN-TARGETING PROTACS AND METHODS OF INDUCING PYROPTOSIS” (Wisconsin Alumni Research Foundation, priority 2023, published 2026)
Like-named read-outs stand apart in the source and are kept apart here.

System: B16F10 cells
Test: Cell viability evaluation by CCK-8 assay
Conditions: for IC50: Mus musculus, read-out: IC50 of cell viability
Experimental: Cell viability evaluation: The cell viability of B16F10 cells treated with ferritin degraders with or without various inhibitors was evaluated by CCK-8 assay. Briefly, 5×10^3 cells were seeded in 96-well plates and cultured for 24 h for attachment. Then the medium in the corresponding wells, except the control, was replaced with 100 μL of medium containing the indicated degrader formulations with concentrations of 0.008, 0.04, 0.2, 1, and 5 μM. After incubation for 24 or 48 h, CCK-8 reagent was added and interacted with cells at 37° C. for 1 h. The absorbance was measured by a microplate reader (Infinite M Plex) at the detection wavelength of 450 nm.
For blocking assays with Z-VAD, NSCI, and VX-765, 5×10^3 cells were seeded in 96-well plates and cultured 24 h for attachment. Then the medium in the corresponding wells, except the control, was replaced with 100 μL of medium containing Z-VAD (10 μM), NSCI (0.1 μM), or VX-765 (10 μM). […] Following another 24-h incubation, CCK-8 reagents were added and interacted with cells at 37° C. for 1 h. The absorbance was measured by a microplate reader (Infinite® M Plex) at the detection wavelength of 450 nm. For blocking assays with DFOM, 5×10^3 cells were seeded in 96-well plates and cultured 24 h for attachment. […] Following another 20-h incubation, CCK-8 reagents were added and interacted with cells at 37° C. for 1 h. The absorbance was measured by a microplate reader (Infinite® M Plex) at the detection wavelength of 450 nm.

Structure (SMILES): CCCCCCCCC=CCCCCCCCC(=O)NCCCC(=O)NC(C(=O)N1CC(O)CC1C(=O)NCc1ccc(-c2scnc2C)cc1)C(C)(C)C (stereo not drawn) [DeFer-2]
- cytotoxicity against B16F10 cells: severe cytotoxicity
- IC50 (B16-F10, 24 h): 3100 nM
- IC50 (B16-F10, 48 h): 1500 nM
